Row | Compound | melting point [°C]
1 | CC[C@H](C)[C@H](NC(=O)/C=C1/c2ccccc2C(=S)N[C@H]1[C@@H](C)CC)C(=O)N[C@H](C(=O)OC)[C@@H](C)CC | 178 to 181
2 | N#Cc1ccc(NC(=O)c2cccc(OCc3ccc(C(F)(F)F)cc3)c2)cc1 | 167 to 168
3 | COc1ccc(NN=C(Sc2ccc(OC)c(OC)c2)C(C)=O)cc1 | 138 to 141
4 | CC(=O)NCc1ccc(CN2CCN(c3ccc(F)cc3)CC2)cc1N | 163 to 164
5 | Cc1ccc(C2SC(=O)NC2=O)cc1C (stereo not given) | 121 to 122
6 | COc1ccc(S(=O)(=O)C2(C(=O)O)CCCC2)cc1 | 89 to 91
7 | CCCCCCCCCCCCCCCCc1ccc(S(=O)(=O)Cl)cc1 | 35 to 36
8 | N#Cc1c(-c2ccccc2)cc(N2CCOCC2)nc1Cl | 198 to 200
9 | Cc1ccnc(C(=O)c2[nH]c3ccc(Cl)cc3c2CC(=O)O)c1 | 230 to 231
10 | O=C(Nc1ccc(OCCCN2CCc3ccccc3C2)cc1)c1cccc2c(=O)c3ccccc3[nH]c12 | 182
11 | CS(=O)(=O)Nc1cccc(CC2c3ccccc3CCc3ccccc32)c1 | 149
12 | COC(=O)c1ccc2cc(OC)c(OC)cc2c1O | 144 to 145
13 | COC(=O)c1ccc2c(=O)n(CC(C)C)c(CNC(=O)OC(C)(C)C)c(-c3cccs3)c2c1 | 170 to 171
14 | C=Cc1ccc(P(c2ccccc2)c2ccccc2)cc1 | 77 to 78
15 | Cc1cc(Nc2ccnc(Nc3ccc(S(=O)(=O)N(CCN4CCCC4)C4CCN(C)CC4)cc3)n2)ccc1F | 93 to 103
16 | COC(=O)CN(C)C(=S)c1cccc2c(SC(F)(F)F)c(OC)ccc12 | 121 to 123
17 | Cc1cccc(NC(=O)C(C)Oc2ccc(Oc3ccc(C#N)cc3)cc2)n1 (stereo not given) | 109 to 111
18 | CC(C)c1cccc(COCCO)c1NC(=O)CC1c2ccccc2Oc2ccccc21 | 153 to 154
19 | O=C(N[C@H]1CC[C@H](CCN2CCN(c3nccc4c3CCO4)CC2)CC1)c1ccc(Cl)cc1Cl | 204
20 | CCOC(=O)N1C(=NC#N)NC(C)=C(C(=O)OC)C1c1cccc(Cl)c1Cl (stereo not given) | 176 to 178
21 | COCCNc1cc(Cl)cc(NCCOC)c1[N+](=O)[O-] | 90
22 | COc1ccc2cc3c(Cl)nn(CC(C)N(C)C)c3nc2c1 (stereo not given) | 78 to 79
23 | CCCCN(C)C(N)=C(C#N)C(N)=S | 163 to 165
24 | N=C(N)c1ccc(O)c(C(=O)c2ccccc2)c1 | 186 to 189
25 | Cc1nc2cc(C)c(CN(C)c3ccc(C(=O)NC(CO)c4cccc([N+](=O)[O-])c4)cc3)cc2c(=O)[nH]1 (stereo not given) | 231 to 240

Row | Compound | melting point [°C]
26 | O=Cc1cc(O)cc2cc(-c3ccc(O)cc3)oc12 | 261 to 263
27 | CC(=O)N1CCN=C1Nc1cccc2c1CCCC2 | 142 to 144
28 | O=C1C(=CO)C(c2ccccc2[N+](=O)[O-])=NN1c1ccc(Cl)cc1 | 155 to 157
29 | COCC1CC(c2ccc3ccccc3c2C#N)=NO1 (stereo not given) | 110 to 111
30 | CC(=O)Oc1ccc(C=C2CCCc3cc(C)cnc32)cc1OC(C)=O | 100 to 101
31 | CC(C)C(Br)C(=O)Nc1ccccc1O (stereo not given) | 110 to 111
32 | Cc1c(SCCN2CCOCC2)ccnc1CSc1nc2ccccc2n1CC(=O)O | 223 to 225
33 | CN(c1nc2ccccc2c(=O)o1)c1ccccc1I | 144 to 148
34 | Fc1ccc(Nc2ccnc3cc(Cl)ccc23)cc1 | 214 to 216
35 | COc1cc(-c2c(Cl)c(CNC(C)(C)C)nc3sc4c(c23)CCNC4)ccc1OC(C)C | 157 to 158
36 | COC(=O)CCCCCNC(=O)c1cccc(OC)c1O | 69 to 70
37 | CCN(CC)c1ccc(N(c2ccc(N(C)C)cc2)C2(c3ccc(N(C)C)cc3Cl)OC(=O)c3ccccc32)cc1 (stereo not given) | 67 to 84
38 | CCOC(=O)C(C(C)=O)C1NC(=O)c2sccc2-n2cccc21 (stereo not given) | 196
39 | CCOC(=O)C(C1c2ccccc2Oc2ccccc21)[N+](=O)[O-] (stereo not given) | 89 to 91
40 | CC(=O)c1cnc(Br)c(C)c1 | 114 to 115
41 | Cc1cc(-c2nc3cc(F)cc(F)c3s2)ccc1N | 201 to 203
42 | N#Cc1csc(-c2csc(C(O)(Cn3cncn3)c3ccc(F)cc3F)c2)n1 (stereo not given) | 172 to 173
43 | COCCOc1ccnc(NCc2ccccc2)c1[N+](=O)[O-] | 81 to 83
44 | Oc1ccc(C(O)CN2CCN(C(c3ccccc3)c3ccccc3)CC2)cc1 (stereo not given) | 154
45 | Clc1cccc(N2CCN(c3nc4cccccc-4n3)CC2)c1 | 217 to 219
46 | CCCCCCCC(=O)CCCCCC(=O)N[C@@H](C)C(=O)OC | 61 to 64
47 | C[C@@H](OC(=O)c1cc([N+](=O)[O-])cc([N+](=O)[O-])c1)[C@@]1(c2ccc(F)cc2F)CO1 | 104 to 107
48 | O=C(CBr)c1cccc(Nc2ccc3ccccc3n2)c1 | 151 to 152
49 | Nc1ccc(S(=O)(=O)N2CCN(c3ccccn3)CC2)cc1 | 208 to 210
50 | O=C(O)C1CC(=O)N(c2ccc(O)cc2)C1 (stereo not given) | 201 to 204
